Legend:
[1] = Pharmacokinetics in athymic nude rats; format: in vivo; details: rat; for AUC / clearance / half-life / Vd / bioavailability / Cmax: athymic nude, plasma; for bioavailability: p.o. (3 mg/kg) vs i.v. (0.5 mg/kg), oral bioavailability; for PK-parameters compared to Example 1: one-way analysis of variance
Description: Pharmacokinetics in Athymic Nude Rats
For pharmacokinetics studies, the following parameters were calculated by non-compartmental regression analysis using Winnonlin 5.0 software (Pharsight, Mountain View, Calif., USA): half life in plasma (t1/2term); plasma clearance (CL); plasma maximum concentration (Cmax); plasma area-under-the-concentration-time-curve (AUC); and percent oral bioavailability (F %).

[2] = biological target: T1, BRAF-MEK-ERK cascade (Homo sapiens, UniProt Q02750); assay: BRAF-MEK-ERK enzymatic cascade assay (TR-FRET); format: biochemical; details: mean±SEM, n=3; 10 point dose response, 45 minutes pre-incubation
T1 construct: human full length MEK1 kinase (Cat No. 14-706); purchased Upstate 14-557 (BRAF V599E); 14-706 (MEK1); 14-536 (ERK2)
Excerpt: A BRAF-MEK-ERK cascade assay is used to evaluate the effects of these compounds as inhibitors of the MAP kinase pathway. An enzymatic cascade assay is set up using recombinant human activated BRAF (V599E) kinase (Cat No. 14-557), human full length MEK1 kinase (Cat No. 14-706) and human full length active MAP Kinase 2/ERK2 (Cat No. 14-536) enzymes procured from Upstate. TR-FRET (Time resolved fluorescence resonance energy transfer) detection technology is used for the read out. […] The kinase reaction is stopped after 90 minutes with 10 mM EDTA and Lance detection mix (2 nM Eu-labeled phospho-serine/threonine antibody (Cat. No. AD0176-Perkin Elmer), 20 nM SA-APC (Cat No. CR130-100-Perkin Elmer) is added. The TR-FRET signal (Excitation at 340 nm, Emission at 615 nm and 665 nm) is read with 50 μs delay time on a Victor3 V fluorimeter. The data is calculated using the ratio of readings at 665 nm to 615 nm. The final concentration of DMSO is 2.5% in the assay. Compounds are screened at 10 μM concentration with pre-incubation of the enzymes in the presence of test compound for 45 minutes.
Each individual IC50 is determined using a 10 point dose response curve generated by GraphPad Prism software Version 4 (San Diego, Calif., USA) using non linear regression curve fit for sigmoidal dose response (variable slope).
These assays described above are fully detailed in Han, Shulin, et. al., Bioorganic & Medicinal Chemistry Letters (2005) 15, 5467-5473, and in Yeh, et. al., Clin Cancer Res (2007) 13 (5), 1576-1583.

[3] = test system: DUSP6 expression in A375 tumors; assay: A375 B-RafV600E human melanoma model in rat, PK-PD experiment (DUSP6 expression in tumor, real time quantitative PCR); format: in vivo; details: A375 tumor bearing rats, single oral dose, at 12 h and 24 h post dosing; two-way analysis of variance, p=0.003 and p=0.006
Description: A375 B-RafV600E Human Melanoma Model in Rat—PK-PD Experiment:
A375 cells were thawed using a 37° C. water bath. Cells were transferred to a tube containing 10 mls of warm DMEM medium. The tube was centrifuged for 5 minutes at 1200 rpm and the supernatant was discarded. The cell pellet was re-suspended and transferred to a 75 cm^2 tissue culture flask containing 15 mls of medium and cultured at 37° C. in a 5% CO2 incubator.
On the day of the cells implantation, cells were harvested (about 85% confluent), and re-suspended in cold medium containing 4 mg/ml of matrigel. This cell suspension was injected, subcutaneously, to athymic-nude pre-irradiated (500 rads) rats. Ten million cells (injection volume, 200 μL) were injected, subcutaneously, into the right flank region of the rats 24 hours after irradiation. Tumor bearing rats were randomized when the tumor volume reached approximately 500 mm^3 after about 15 to 20 days. Three rats were used for each time point.
Rats were treated orally with a single dose of 10, 30 and 60 mg/kg p.o. of Example 1A and 30 mg/kg of Example 1B. […] The mRNA expression levels of two direct target genes of MEK substrate P-Erk (DUSP6 and SPRY4) and an indirect target (BMF) can be measured. […] The tumor samples were pulverized, extracted and studied for expression of the […] DUSP6 using a real time quantitative PCR.

AUC ([1]; iv, i.v. (0.5 mg/kg)) [µg·h/mL] | clearance ([1]; iv, i.v. (0.5 mg/kg)) [mL/h/kg] | half-life ([1]; iv, i.v. (0.5 mg/kg)) [h] | Vd ([1]; iv, i.v. (0.5 mg/kg)) [L/kg] | bioavailability [1] [%] | AUC ([1]; po, p.o. (3 mg/kg)) [µg·h/mL] | Cmax ([1]; po, p.o. (3 mg/kg)) [µg/mL] | IC50 [2] [nM] | SMILES | PK-parameters compared to Example 1 [1] | lowering levels of DUSP-6 in tumor [3]
100 ± 14 | 5.2 | 17.1 ± 1.8 | 0.125 ± 0.006 | 126 | 752 ± 84 | 25.2 ± 2.7 | 1.6 ± 0.1 | O=S(=O)(Nc1c(Nc2ccc(I)cc2F)c(F)c(F)c2ccoc12)C1(C[C@@H](O)CO)CC1 [Example 1B, (R)—N-(4,5-difluoro-6-((2-fluoro-4-iodophenyl)amino)benzofuran-7-yl)-1-(2,3-dihydroxypropyl)cyclopropane-1-sulfonamide] | improved PK-parameters compared to Example 1 | 
70 ± 9 | 7.6 | 15.6 ± 1.7 | 0.17 ± 0.006 | 87 | 365 ± 45 | 9.8 ± 0.7 | 2.1 ± 0.58 | O=S(=O)(Nc1c(Nc2ccc(I)cc2F)c(F)c(F)c2ccoc12)C1(CC(O)CO)CC1 (racemic) [Example 1, 1-(2,3-Dihydroxy-propyl)-cyclopropanesulfonic acid [4,5-difluoro-6-(2-fluoro-4-iodo-phenylamino)-benzofuran-7-yl]amide] |  | 
126 ± 3 | 4 | 19.9 ± 0.8 | 0.11 ± 0.006 | 132 | 994 ± 30 | 25.6 ± 0.7 | 2 ± 0.25 | O=S(=O)(Nc1c(Nc2ccc(I)cc2F)c(F)c(F)c2ccoc12)C1(C[C@H](O)CO)CC1 [Example 1A, (S)—N-(4,5-difluoro-6-((2-fluoro-4-iodophenyl)amino)benzofuran-7-yl)-1-(2,3-dihydroxypropyl)cyclopropane-1-sulfonamide] | improved PK-parameters compared to Example 1 | significantly more effective than Example-1B

From patent publication US8470878B2, “Heterocyclic sulfonamide derivatives” (Novartis AG, priority 2011, dated 2013)
